The values below are quoted from earlier work in US11566140B2, “Exterior coating composition” (Troy Corporation, priority 2019, dated 2023).

For the data set the following is noted: 5 grams of pure BIT completely soluble in 100 ml of methanol.

Consider `O=c1[nH]sc2ccccc12` [BIT, 1,2-benzisothiazolin-3-one], for which the solubility in methanol entry is “greater than 5%”.
